The values that follow come from ChEMBL document CHEMBL5715954, “Silencing c-Myc translation as a therapeutic strategy through targeting PI3Kδ and CK1ε in hematological malignancies” (Blood, 2017).

Common to all, as to set-up: scale not given: the % may be the effect or the level left
Experiment [1] concerns the target T1, cGMP-dependent protein kinase 2 (Homo sapiens) (UniProt Q13237).
T1 sequence (whole entry): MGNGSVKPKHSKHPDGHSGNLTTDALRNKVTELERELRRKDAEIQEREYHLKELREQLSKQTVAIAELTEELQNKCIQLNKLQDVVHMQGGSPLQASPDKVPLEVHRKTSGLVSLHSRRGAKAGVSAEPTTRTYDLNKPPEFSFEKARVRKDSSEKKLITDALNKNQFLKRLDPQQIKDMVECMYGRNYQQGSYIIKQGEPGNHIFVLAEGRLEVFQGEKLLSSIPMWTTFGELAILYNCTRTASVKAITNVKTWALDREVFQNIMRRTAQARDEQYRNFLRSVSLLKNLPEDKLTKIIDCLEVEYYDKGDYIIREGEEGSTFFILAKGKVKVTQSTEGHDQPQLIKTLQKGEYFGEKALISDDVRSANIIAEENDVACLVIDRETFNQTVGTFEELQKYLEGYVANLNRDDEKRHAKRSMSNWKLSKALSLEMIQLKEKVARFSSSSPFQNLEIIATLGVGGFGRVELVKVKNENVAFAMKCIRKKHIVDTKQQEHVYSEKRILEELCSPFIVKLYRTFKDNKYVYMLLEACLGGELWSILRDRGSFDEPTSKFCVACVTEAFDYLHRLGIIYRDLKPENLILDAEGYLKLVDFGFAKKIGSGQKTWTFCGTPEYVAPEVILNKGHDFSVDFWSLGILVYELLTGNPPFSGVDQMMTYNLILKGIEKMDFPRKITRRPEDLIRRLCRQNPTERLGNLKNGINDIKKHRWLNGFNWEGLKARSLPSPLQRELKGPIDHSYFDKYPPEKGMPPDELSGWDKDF
As to the kind of experiment: Inhibition of human PKG2 assessed as enzyme activity at 1 uM using LRRASLG as substrate preincubated for 20 mins followed by [gamma-33P]-ATP addition and measured after 120 mins by radiometric Hot-SpotSM Kinase assay relative to control.

Experiment [2] addresses T2, Mitogen-activated protein kinase kinase kinase kinase 2 (Homo sapiens) (UniProt Q12851).
T2 sequence (whole entry): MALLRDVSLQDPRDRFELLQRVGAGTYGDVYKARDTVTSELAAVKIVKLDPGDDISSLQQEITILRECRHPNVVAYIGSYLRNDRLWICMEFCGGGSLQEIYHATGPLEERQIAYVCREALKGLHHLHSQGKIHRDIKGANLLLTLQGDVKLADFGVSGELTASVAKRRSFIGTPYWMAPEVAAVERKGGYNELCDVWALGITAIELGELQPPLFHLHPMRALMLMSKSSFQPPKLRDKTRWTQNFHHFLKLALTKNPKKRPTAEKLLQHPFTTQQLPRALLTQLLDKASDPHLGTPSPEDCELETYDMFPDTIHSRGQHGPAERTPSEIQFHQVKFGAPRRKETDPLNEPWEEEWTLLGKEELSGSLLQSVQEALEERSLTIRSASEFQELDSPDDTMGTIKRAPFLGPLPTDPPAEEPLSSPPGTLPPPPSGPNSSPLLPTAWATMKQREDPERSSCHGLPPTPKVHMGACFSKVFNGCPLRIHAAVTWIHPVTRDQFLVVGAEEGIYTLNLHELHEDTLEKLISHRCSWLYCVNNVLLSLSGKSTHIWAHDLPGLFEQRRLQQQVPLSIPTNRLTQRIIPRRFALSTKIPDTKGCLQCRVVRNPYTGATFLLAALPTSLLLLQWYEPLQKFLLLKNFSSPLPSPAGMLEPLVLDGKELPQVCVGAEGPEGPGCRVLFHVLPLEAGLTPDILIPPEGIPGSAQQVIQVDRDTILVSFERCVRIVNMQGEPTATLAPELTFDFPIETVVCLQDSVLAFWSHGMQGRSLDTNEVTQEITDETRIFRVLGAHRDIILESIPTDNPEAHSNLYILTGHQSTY
As to the kind of experiment: Inhibition of human GCK assessed as enzyme activity at 1 uM using myelin basic protein as substrate preincubated for 20 mins followed by [gamma-33P]-ATP addition and measured after 120 mins by radiometric Hot-SpotSM Kinase assay relative to control.

For experiment [3], the target named is Serine/threonine-protein kinase Nek7 (Homo sapiens) (UniProt Q8TDX7). As to the kind of experiment: Inhibition of human NEK7 assessed as enzyme activity at 1 uM using casein as substrate preincubated for 20 mins followed by [gamma-33P]-ATP addition and measured after 120 mins by radiometric Hot-SpotSM Kinase assay relative to control.
Experiment [4] concerns the target Tau-tubulin kinase 2 (Homo sapiens) (UniProt Q6IQ55). Put plainly: Inhibition of human TTBK2 assessed as enzyme activity at 1 uM using myelin basic protein as substrate preincubated for 20 mins followed by [gamma-33P]-ATP addition and measured after 120 mins by radiometric Hot-SpotSM Kinase assay relative to control.
Experiment [5] deals with Serine/threonine-protein kinase PLK1 (Homo sapiens) (UniProt P53350). As to the kind of experiment: Inhibition of human PLK1 assessed as enzyme activity at 1 uM using casein as substrate preincubated for 20 mins followed by [gamma-33P]-ATP addition and measured after 120 mins by radiometric Hot-SpotSM Kinase assay relative to control.
Serine/threonine-protein kinase PLK1 (Homo sapiens), sequence (P53350 whole entry): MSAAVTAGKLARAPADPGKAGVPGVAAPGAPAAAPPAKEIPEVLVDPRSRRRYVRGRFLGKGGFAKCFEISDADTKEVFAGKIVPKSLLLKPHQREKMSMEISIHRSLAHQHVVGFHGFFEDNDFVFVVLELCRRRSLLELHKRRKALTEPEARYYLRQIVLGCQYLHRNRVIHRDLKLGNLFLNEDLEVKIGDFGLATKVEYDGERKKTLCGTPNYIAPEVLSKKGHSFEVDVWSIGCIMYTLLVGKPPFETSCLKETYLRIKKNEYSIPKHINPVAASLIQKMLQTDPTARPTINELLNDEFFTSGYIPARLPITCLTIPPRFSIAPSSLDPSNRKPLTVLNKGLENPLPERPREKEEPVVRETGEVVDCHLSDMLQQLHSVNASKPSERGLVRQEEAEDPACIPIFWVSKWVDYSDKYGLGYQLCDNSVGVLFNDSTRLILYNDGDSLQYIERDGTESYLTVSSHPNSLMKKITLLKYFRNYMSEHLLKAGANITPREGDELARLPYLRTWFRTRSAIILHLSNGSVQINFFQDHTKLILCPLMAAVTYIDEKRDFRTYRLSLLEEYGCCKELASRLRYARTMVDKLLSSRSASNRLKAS

Tau-tubulin kinase 2 (Homo sapiens), sequence (Q6IQ55 whole entry): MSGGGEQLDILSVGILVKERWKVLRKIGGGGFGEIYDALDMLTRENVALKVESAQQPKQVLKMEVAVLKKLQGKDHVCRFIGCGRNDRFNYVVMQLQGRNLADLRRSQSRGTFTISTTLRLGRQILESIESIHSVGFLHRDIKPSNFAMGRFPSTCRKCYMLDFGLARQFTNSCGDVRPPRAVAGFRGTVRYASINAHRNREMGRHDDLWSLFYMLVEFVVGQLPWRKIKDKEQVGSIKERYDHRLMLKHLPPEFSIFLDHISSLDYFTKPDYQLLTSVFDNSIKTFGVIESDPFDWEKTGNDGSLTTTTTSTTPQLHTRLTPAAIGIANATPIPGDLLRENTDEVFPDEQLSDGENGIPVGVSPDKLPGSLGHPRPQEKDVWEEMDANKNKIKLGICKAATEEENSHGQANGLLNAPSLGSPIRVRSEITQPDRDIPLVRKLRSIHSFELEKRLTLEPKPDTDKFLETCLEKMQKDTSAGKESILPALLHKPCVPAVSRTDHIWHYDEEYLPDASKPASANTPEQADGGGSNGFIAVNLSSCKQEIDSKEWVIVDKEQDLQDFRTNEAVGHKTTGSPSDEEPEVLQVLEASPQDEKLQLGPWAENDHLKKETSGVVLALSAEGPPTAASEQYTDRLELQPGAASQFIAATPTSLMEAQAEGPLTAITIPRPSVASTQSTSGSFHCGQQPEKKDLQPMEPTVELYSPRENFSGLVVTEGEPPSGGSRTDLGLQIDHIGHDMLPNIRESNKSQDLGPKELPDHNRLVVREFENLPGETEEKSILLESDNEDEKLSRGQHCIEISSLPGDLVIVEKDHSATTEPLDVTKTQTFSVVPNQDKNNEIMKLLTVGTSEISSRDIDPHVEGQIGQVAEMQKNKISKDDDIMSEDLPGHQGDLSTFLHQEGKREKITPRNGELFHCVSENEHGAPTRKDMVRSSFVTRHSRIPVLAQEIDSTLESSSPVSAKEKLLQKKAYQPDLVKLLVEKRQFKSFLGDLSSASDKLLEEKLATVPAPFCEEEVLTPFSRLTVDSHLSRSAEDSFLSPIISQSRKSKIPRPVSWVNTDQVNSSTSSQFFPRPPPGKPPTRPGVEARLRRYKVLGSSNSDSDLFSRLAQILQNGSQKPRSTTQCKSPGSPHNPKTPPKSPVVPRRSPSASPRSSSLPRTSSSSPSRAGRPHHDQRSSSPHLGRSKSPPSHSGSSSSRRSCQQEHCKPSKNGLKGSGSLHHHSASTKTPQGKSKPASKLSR
Serine/threonine-protein kinase Nek7 (Homo sapiens), sequence (Q8TDX7 whole entry, looked up): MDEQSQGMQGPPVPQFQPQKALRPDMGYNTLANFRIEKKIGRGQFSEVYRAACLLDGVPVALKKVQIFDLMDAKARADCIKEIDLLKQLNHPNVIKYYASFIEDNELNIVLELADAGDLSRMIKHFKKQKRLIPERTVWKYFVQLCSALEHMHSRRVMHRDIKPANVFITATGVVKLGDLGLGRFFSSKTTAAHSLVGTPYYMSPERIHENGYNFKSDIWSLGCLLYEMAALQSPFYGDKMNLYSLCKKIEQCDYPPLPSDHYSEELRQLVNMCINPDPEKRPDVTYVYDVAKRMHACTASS

Regarding `C[C@H](Nc1ncnc2nc[nH]c12)c1cc2cccc(Cl)c2c(=O)n1-c1ccccc1`, the Activity was 99.8% in experiment [1]; 96.7% in experiment [2]; 100% in experiment [3]; 95.8% in experiment [4]; 94% in experiment [5].
On to `CC[C@H](Nc1ncnc2[nH]cnc12)c1nc2cccc(F)c2c(=O)n1-c1ccccc1`, for which the Activity was 99.7% in experiment [1]; 97% in experiment [2]; 97.3% in experiment [3]; 90.6% in experiment [4]; 95.4% in experiment [5].
Consider `CC(C)Oc1ccc(-c2nn([C@@H](C)c3oc4ccc(F)cc4c(=O)c3-c3cccc(F)c3)c3ncnc(N)c23)cc1F` [UMBRALISIB], for which the Activity was determined as 102% in experiment [1]; 98.6% in experiment [2]; 85.4% in experiment [3]; 96.7% in experiment [4]; 98.4% in experiment [5].
